Results as given in ChEMBL document CHEMBL1201862, “PubChem BioAssay data set” (2004).
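In this assay, cells in 96-well plates receive the compound at five concentrations for 48 hours. Endpoints are linearly interpolated between the surrounding concentrations. GI50 is the concentration that inhibits growth by half.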 Active and inactive are the calls of the source. No stated cut-off is given here; in the data, active = GI50 up to about 1.1 µM and inactive = higher.

Tests used:
Experiment in all cases: NCI-60 cell line screen, 48 h
[1] = tested on: PC-3
[2] = tested on: A549
[3] = tested on: HCT-116
[4] = tested on: NCI-H226
[5] = tested on: UO-31
[6] = tested on: RXF 393
[7] = tested on: SF-295
[8] = tested on: TK-10
[9] = tested on: HT-29
[10] = tested on: OVCAR-3
[11] = tested on: SR
[12] = tested on: SN12C
[13] = tested on: EKVX
[14] = tested on: ACHN
[15] = tested on: U-251
[16] = tested on: DU-145
[17] = tested on: MDA-MB-231
[18] = tested on: IGROV-1
[19] = tested on: NCI-H522

SMILES | GI50 [1] | GI50 [2] | GI50 [3] | GI50 [4] | GI50 [5] | GI50 [6] | GI50 [7] | GI50 [8] | GI50 [9] | GI50 [10] | GI50 [11] | GI50 [12] | GI50 [13] | GI50 [14] | GI50 [15] | GI50 [16] | GI50 [17] | GI50 [18] | GI50 [19]
CCCC#CC(O)(C(=O)OC1CCN(C)CC1)C1CCCCC1 (configuration not stated) | 48.3 µM (inactive) | > 100 µM (inactive) | > 100 µM (inactive) | 94.4 µM (inactive) | 29 µM (inactive) | > 100 µM (inactive) | > 100 µM (inactive) | > 100 µM (inactive) | 55.2 µM (inactive) | > 100 µM (inactive) | > 100 µM (inactive) | > 100 µM (inactive) | > 100 µM (inactive) | > 100 µM (inactive) | > 100 µM (inactive) | > 100 µM (inactive) | > 100 µM (inactive) | > 100 µM (inactive) | 
N#Cc1ncn(-c2ccccc2)c1N | > 100 µM (inactive) | > 100 µM (inactive) | > 100 µM (inactive) | > 100 µM (inactive) | > 100 µM (inactive) |  | > 100 µM (inactive) | > 100 µM (inactive) | > 100 µM (inactive) | > 100 µM (inactive) | > 100 µM (inactive) | > 100 µM (inactive) | > 100 µM (inactive) | > 100 µM (inactive) | > 100 µM (inactive) | > 100 µM (inactive) | > 100 µM (inactive) | > 100 µM (inactive) | > 100 µM (inactive)
CC(C)(C)n1c(=O)n2n(c1=O)Cc1cccc3cccc(c13)C2 | 13 µM (inactive) | 26.7 µM (inactive) | 15.1 µM (inactive) |  | 22.1 µM (inactive) | 13.9 µM (inactive) | 17 µM (inactive) | 29.1 µM (inactive) | 16.7 µM (inactive) | 15.4 µM (inactive) | 6.7 µM (inactive) | 19.3 µM (inactive) | 15 µM (inactive) | 20.6 µM (inactive) | 15.3 µM (inactive) | 35.5 µM (inactive) | 32.6 µM (inactive) | 11.3 µM (inactive) | 2.99 µM (inactive)
N#Cc1c(N2CCN(c3ccc([N+](=O)[O-])cc3)CC2)[n+]([O-])c2ccccc2[n+]1[O-] | > 100 µM (inactive) | 99.5 µM (inactive) | > 100 µM (inactive) |  | 0.0155 µM (active) | > 100 µM (inactive) | > 100 µM (inactive) | > 100 µM (inactive) | > 100 µM (inactive) | > 100 µM (inactive) | 1.28 µM (inactive) | > 100 µM (inactive) | > 100 µM (inactive) | > 100 µM (inactive) | 78.2 µM (inactive) | > 100 µM (inactive) | > 100 µM (inactive) | 17.4 µM (inactive) | 3.5 µM (inactive)
Nc1n[n+]([O-])c2cnccc2[n+]1[O-] | 36.1 µM (inactive) | 33.9 µM (inactive) | 32.4 µM (inactive) | > 100 µM (inactive) | > 100 µM (inactive) |  | 45.6 µM (inactive) | > 100 µM (inactive) | 39.1 µM (inactive) | 35.4 µM (inactive) | 54.7 µM (inactive) | 44.2 µM (inactive) |  | 50.9 µM (inactive) | 58.2 µM (inactive) | > 100 µM (inactive) | 42.9 µM (inactive) | 37.2 µM (inactive) | > 100 µM (inactive)
CC1(C)CC(=O)/C(=C/C2CCNC2=S)C(=O)N1 (configuration not stated) | > 100 µM (inactive) | > 100 µM (inactive) | > 100 µM (inactive) | > 100 µM (inactive) | > 100 µM (inactive) |  | > 100 µM (inactive) | > 100 µM (inactive) | > 100 µM (inactive) | > 100 µM (inactive) | > 100 µM (inactive) | 82.4 µM (inactive) | > 100 µM (inactive) | > 100 µM (inactive) | > 100 µM (inactive) | > 100 µM (inactive) | > 100 µM (inactive) | > 100 µM (inactive) | > 100 µM (inactive)
Cc1c(C)c(C)c(CSC(=N)N)c(C)c1C | 12.2 µM (inactive) | 17.2 µM (inactive) | 12.7 µM (inactive) | 13.6 µM (inactive) | 6.52 µM (inactive) | 17.5 µM (inactive) | 7.52 µM (inactive) | 14.8 µM (inactive) | 12.5 µM (inactive) | 16.5 µM (inactive) |  | 16.3 µM (inactive) | 14.8 µM (inactive) | 16.6 µM (inactive) | 13.6 µM (inactive) | 16.9 µM (inactive) | 14.1 µM (inactive) | 33.6 µM (inactive) | 16.3 µM (inactive)
CN(C(=O)[C@@H](NC(=O)OC(C)(C)C)c1ccccc1)[C@H]1CCCC[C@@H]1N1CCCC1 | > 100 µM (inactive) | > 100 µM (inactive) | > 100 µM (inactive) | > 100 µM (inactive) | > 100 µM (inactive) |  | > 100 µM (inactive) | > 100 µM (inactive) | > 100 µM (inactive) | > 100 µM (inactive) | > 100 µM (inactive) | > 100 µM (inactive) | > 100 µM (inactive) | > 100 µM (inactive) | > 100 µM (inactive) | > 100 µM (inactive) | > 100 µM (inactive) | > 100 µM (inactive) | > 100 µM (inactive)
CCOC(=O)c1[nH]c2cccc3c2c1CC[C@H](NC(=O)C(F)(F)F)C3=O | 64.6 µM (inactive) | 28.8 µM (inactive) | 35.6 µM (inactive) | > 100 µM (inactive) | > 100 µM (inactive) |  | 22.3 µM (inactive) | 46 µM (inactive) | > 100 µM (inactive) | > 100 µM (inactive) | > 100 µM (inactive) | 40.3 µM (inactive) | < 0.01 µM (active) | < 0.01 µM (active) | 22.5 µM (inactive) | > 100 µM (inactive) | > 100 µM (inactive) | 75.5 µM (inactive) | 
O=C(Cn1nnc(-c2ccccc2)n1)N/N=C/c1cn(Cc2ccc(Cl)cc2Cl)c2ccccc12 | > 100 µM (inactive) | 51.5 µM (inactive) | > 100 µM (inactive) |  | > 100 µM (inactive) |  | 63.2 µM (inactive) | > 100 µM (inactive) | > 100 µM (inactive) | > 100 µM (inactive) | 63.1 µM (inactive) | > 100 µM (inactive) | 44.5 µM (inactive) | > 100 µM (inactive) | > 100 µM (inactive) | > 100 µM (inactive) | > 100 µM (inactive) | > 100 µM (inactive) | 43.1 µM (inactive)
CCOC(=O)c1nnc2c(C#N)c(-c3ccccc3)c(C)n2c1N | 82.4 µM (inactive) | 39.9 µM (inactive) | 42.2 µM (inactive) |  | 33.4 µM (inactive) | 98.4 µM (inactive) | 34.1 µM (inactive) | 37 µM (inactive) | 33.7 µM (inactive) | 29.4 µM (inactive) | 36.1 µM (inactive) | 37.8 µM (inactive) | 38 µM (inactive) | 29.9 µM (inactive) | 38 µM (inactive) | 83.9 µM (inactive) | 51.8 µM (inactive) | 22.2 µM (inactive) | 27.7 µM (inactive)
CC(C)(C)NC(=O)/C(=C\Sc1ccccc1)c1ccc2c(c1)OCO2 | 22.5 µM (inactive) | 31 µM (inactive) | 24.3 µM (inactive) |  | 26.9 µM (inactive) |  | 39.1 µM (inactive) | 44.8 µM (inactive) | 17.9 µM (inactive) | 30.8 µM (inactive) | 25.8 µM (inactive) | 26.7 µM (inactive) | 28.4 µM (inactive) | 36.9 µM (inactive) | 30 µM (inactive) | 37.2 µM (inactive) | 21.8 µM (inactive) | 29.2 µM (inactive) | 17.9 µM (inactive)
CCOC(=O)C1(C(=O)OCC)C[C@]23OCCC(=O)[C@H]2[C@H]2C(=O)OC(C)(C)O[C@]23C1 | > 100 µM (inactive) | > 100 µM (inactive) | > 100 µM (inactive) |  | > 100 µM (inactive) |  | > 100 µM (inactive) | > 100 µM (inactive) | > 100 µM (inactive) | > 100 µM (inactive) | > 100 µM (inactive) | > 100 µM (inactive) | > 100 µM (inactive) | > 100 µM (inactive) | > 100 µM (inactive) | > 100 µM (inactive) | > 100 µM (inactive) | > 100 µM (inactive) | > 100 µM (inactive)
COC(=O)c1ccc2c(c1)CC1(C2)Cc2cc3c(cc2C1)CCC3 | > 100 µM (inactive) | > 100 µM (inactive) | > 100 µM (inactive) |  | > 100 µM (inactive) | > 100 µM (inactive) | > 100 µM (inactive) | > 100 µM (inactive) | > 100 µM (inactive) | > 100 µM (inactive) | > 100 µM (inactive) |  | > 100 µM (inactive) | > 100 µM (inactive) | 49.3 µM (inactive) | > 100 µM (inactive) | > 100 µM (inactive) | > 100 µM (inactive) | > 100 µM (inactive)
c1ccc2cc(CNCCOCCOCCNCc3ccc4ccccc4c3)ccc2c1 | 2.17 µM (inactive) | 1.74 µM (inactive) | 1.58 µM (inactive) | 2.09 µM (inactive) |  | 1.78 µM (inactive) | 1.64 µM (inactive) | 1.62 µM (inactive) | 1.31 µM (inactive) | 1.67 µM (inactive) | 1.26 µM (inactive) | 2.16 µM (inactive) | 2.54 µM (inactive) | 1.79 µM (inactive) | 1.97 µM (inactive) | 1.78 µM (inactive) | 1.57 µM (inactive) | 1.7 µM (inactive) | 1.83 µM (inactive)
CC(C)(C)N(Cc1ccc2c(c1)OCO2)C(=O)/C=C\Sc1ccccc1 | 38.1 µM (inactive) | 47 µM (inactive) | 23.9 µM (inactive) | 68.2 µM (inactive) | 43 µM (inactive) |  | > 100 µM (inactive) | > 100 µM (inactive) | 28.8 µM (inactive) | > 100 µM (inactive) | 4.44 µM (inactive) | > 100 µM (inactive) | 60.8 µM (inactive) | > 100 µM (inactive) | 63.7 µM (inactive) | > 100 µM (inactive) | > 100 µM (inactive) | 83.2 µM (inactive) | 6.98 µM (inactive)
